Patent US9586948B2, “Inhibitors of IRAK4 activity” (MERCK SHARP & DOHME CORP., priority 2012, dated 2017)

biological target: GST tagged IRAK4 (Homo sapiens (Human), UniProt Q9NWZ3); test: Determination of IRAK4 kinase activity (IMAP fluorescence polarization); assay type: biochemical; conditions: 0.5 nM GST tagged IRAK4, 100 nM fluorescent peptide substrate RP7030, 100 μM ATP, 30 minutes at 25° C.
Description: The kinase activity of IRAK4 is determined by its ability to catalyze the phosphorylation of a fluorescent polypeptide substrate. The extent of phosphorylation is measured using IMAP technology (Molecular Devices) where the phosphorylated fluorescent substrate binds to the large M(III)-based nanoparticles which reduces the rotational speed of the substrate and thus increases its fluorescent polarization (FP).
Procedure: A 20 μl reaction mixture contains 10 mM TriHCl, pH 7.2, 0.5 nM GST tagged IRAK4 (SignalChem), 100 nM fluorescent peptide substrate (RP7030, Molecular Devices), 100 μM ATP, 1 mM DTT, 1 mM MgCl2, and 0.01% Tween 20. The reaction is initiated by the addition of ATP. After incubation for 30 minutes at 25° C., 60 μl of Progressive IMAP Reagent (Molecular Devices) is added to stop the reaction. Change in RP7030's FP is determined by a FP reader (Analyst HT, LJL BioSystems).

GST tagged IRAK4, sequence (Q9NWZ3 whole entry): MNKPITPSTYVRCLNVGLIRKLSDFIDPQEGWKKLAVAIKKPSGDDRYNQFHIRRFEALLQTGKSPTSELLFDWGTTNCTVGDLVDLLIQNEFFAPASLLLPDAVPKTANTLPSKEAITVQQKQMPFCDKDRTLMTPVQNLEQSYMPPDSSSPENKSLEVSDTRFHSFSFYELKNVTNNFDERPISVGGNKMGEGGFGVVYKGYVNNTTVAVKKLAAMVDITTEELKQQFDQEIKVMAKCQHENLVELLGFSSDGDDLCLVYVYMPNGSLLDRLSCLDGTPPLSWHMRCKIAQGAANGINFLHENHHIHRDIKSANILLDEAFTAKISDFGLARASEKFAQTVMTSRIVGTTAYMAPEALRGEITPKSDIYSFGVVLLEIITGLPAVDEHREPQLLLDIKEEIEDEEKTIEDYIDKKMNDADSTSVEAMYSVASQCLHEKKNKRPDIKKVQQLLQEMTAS

Row | IC50 | SMILES
1 | 1450 nM | Cn1cc(NC(=O)c2ccnc(-c3ccnc(NCC4CC4)c3)c2)c(C(N)=O)n1 [Example 5, N-(3-carbamoyl-1-methyl-1H-pyrazol-4-yl)-2′-(cyclopropylmethylamino)-2,4′-bipyridine-4-carboxamide]
2 | 2720 nM | Cn1ncc(NC(=O)c2cccc(-c3ccnc(NCC4CC4)c3)n2)c1C(N)=O [Example 8, N-(5-carbamoyl-1-methyl-1H-pyrazol-4-yl)-2′-(cyclopropylmethylamino)-2,4′-bipyridine-6-carboxamide]
3 | 649 nM | Cn1cc(NC(=O)c2cccc(-n3cccc3)n2)c(C(N)=O)n1 [Example 2, N-(3-carbamoyl-1-methyl-1H-pyrazol-4-yl)-6-(1H-pyrrol-1-yl)picolinamide]
4 | 477 nM | Cn1cc(NC(=O)c2cccc(-c3ccnc(NCC4CCOCC4)c3)n2)c(C(N)=O)n1 [Example 17, N-(3-carbamoyl-1-methyl-1H-pyrazol-4-yl)-2′-(((tetrahydro-2H-pyran-4-yl)methyl)amino)-[2,4′-bipyridine]-6-carboxamide]
5 | 2680 nM | Cn1cc(NC(=O)c2cccc(-c3ccnc(NCC4CC4)c3)n2)c(C(=O)NCCn2cccn2)n1 [Example 50, N-(3-((2-(1H-pyrazol-1-yl)ethyl)carbamoyl)-1-methyl-1H-pyrazol-4-yl)-2′-((cyclopropylmethyl)amino)-[2,4′-bipyridine]-6-carboxamide]
6 | 729 nM | CN1CCC(CNC(=O)c2nn(C)cc2NC(=O)c2cccc(-c3ccnc(NCC4CC4)c3)n2)C1 (stereo not drawn) [Example 34, 2′-((cyclopropylmethyl)amino)-N-(1-methyl-3-(((1-methylpyrrolidin-3-yl)methyl)carbamoyl)-1H-pyrazol-4-yl)-[2,4′-bipyridine]-6-carboxamide]
7 | 1060 nM | Cn1cc(NC(=O)c2cccc(-c3ccnc(NCC4CC4)c3)n2)c(C(=O)NCCN2CCCC2)n1 [Example 35, 2′-((cyclopropylmethyl)amino)-N-(1-methyl-3-((2-(pyrrolidin-1-yl)ethyl)carbamoyl)-1H-pyrazol-4-yl)-[2,4′-bipyridine]-6-carboxamide]
8 | 74 nM | Cn1cc(NC(=O)c2cccc(-c3ccnc(NCC4CC4)c3)n2)c(C(N)=O)n1 [Example 1, N-(3-carbamoyl-1-methyl-1H-pyrazol-4-yl)-2′-((cyclopropylmethyl)amino)-[2,4′-bipyridine]-6-carboxamide]
9 | 4380 nM | Cn1cc(NC(=O)c2cccc(-c3ccnc(NCC4CC4)c3)n2)c(C(=O)NCc2ccncn2)n1 [Example 47, 2′-((cyclopropylmethyl)amino)-N-(1-methyl-3-((pyrimidin-4-ylmethyl)carbamoyl)-1H-pyrazol-4-yl)-[2,4′-bipyridine]-6-carboxamide]
10 | 190 nM | Cn1cc(NC(=O)c2cccc(-c3ccnc(NCC4CC4)c3)n2)c(C(=O)N2CC(CN)C2)n1 [Example 42, N-(3-(3-(aminomethyl)azetidine-1-carbonyl)-1-methyl-1H-pyrazol-4-yl)-2′-((cyclopropylmethyl)amino)-[2,4′-bipyridine]-6-carboxamide]
11 | 362 nM | Cn1cc(NC(=O)c2cccc(-c3ccsc3)n2)c(C(N)=O)n1 [Example 22, N-(3-carbamoyl-1-methyl-1H-pyrazol-4-yl)-6-(thiophen-3-yl)picolinamide]
12 | 785 nM | Cn1cc(NC(=O)c2cccc(-c3ccnc(NC(=O)OC(C)(C)C)c3)n2)c(C(N)=O)n1 [Example 4, tert-butyl(6-((3-carbamoyl-1-methyl-1H-pyrazol-4-yl)carbamoyl)-[2,4′-bipyridin]-2′-yl)carbamate]
13 | 739 nM | CN1CCC=C(c2cccc(C(=O)Nc3cn(C)nc3C(N)=O)n2)C1 [Example 33, N-(3-carbamoyl-1-methyl-1H-pyrazol-4-yl)-1′-methyl-1′,2′,5′,6′-tetrahydro-[2,3′-bipyridine]-6-carboxamide]
14 | 2130 nM | COc1ncccc1-c1cccc(C(=O)Nc2cn(C)nc2C(N)=O)n1 [Example 20, N-(3-carbamoyl-1-methyl-1H-pyrazol-4-yl)-2′-methoxy-[2,3′-bipyridine]-6-carboxamide]
15 | 1540 nM | Cn1cc(NC(=O)c2cccc(-c3ccnc(NCC4CC4)c3)n2)c(C(=O)NCc2ncc[nH]2)n1 [Example 36, N-(3-(((1H-imidazol-2-yl)methyl)carbamoyl)-1-methyl-1H-pyrazol-4-yl)-2′-((cyclopropylmethyl)amino)-[2,4′-bipyridine]-6-carboxamide]
16 | 196 nM | Cn1cc(NC(=O)c2cccc(-c3ccnc(NCC(F)F)c3)n2)c(C(N)=O)n1 [Example 16, N-(3-carbamoyl-1-methyl-1H-pyrazol-4-yl)-2′-((2,2-difluoroethyl)amino)-[2,4′-bipyridine]-6-carboxamide]
17 | 1580 nM | Cn1cc(NC(=O)c2cccc(-c3ccnc(NCC4CC4)c3)n2)c(C(=O)Nc2cncnc2)n1 [Example 43, 2′-((cyclopropylmethyl)amino)-N-(1-methyl-3-(pyrimidin-5-ylcarbamoyl)-1H-pyrazol-4-yl)-[2,4′-bipyridine]-6-carboxamide]

Row | IC50 | SMILES
18 | 3220 nM | Cn1cc(NC(=O)c2cccc(N3CCOCC3)n2)c(C(N)=O)n1 [Example 9, N-(3-carbamoyl-1-methyl-1H-pyrazol-4-yl)-6-morpholinopicolinamide]
19 | 1100 nM | Cn1cc(NC(=O)c2cncc(-c3ccnc(NCC4CC4)c3)c2)c(C(N)=O)n1 [Example 7, N-(3-carbamoyl-1-methyl-1H-pyrazol-4-yl)-2′-(cyclopropylmethylamino)-3,4′-bipyridine-5-carboxamide]
20 | 101 nM | Cn1cc(NC(=O)c2cccc(-c3ccnc(N)c3)n2)c(C(N)=O)n1 [Example 6, 2′-amino-N-(3-carbamoyl-1-methyl-1H-pyrazol-4-yl)-[2,4′-bipyridine]-6-carboxamide]
21 | 187 nM | COCCNc1cc(-c2cccc(C(=O)Nc3cn(C)nc3C(N)=O)n2)ccn1 [Example 15, N-(3-carbamoyl-1-methyl-1H-pyrazol-4-yl)-2′-((2-methoxyethyl)amino)-[2,4′-bipyridine]-6-carboxamide]
22 | 1100 nM | Cn1cc(NC(=O)c2cccc(-c3ccc(N4CCOCC4)nc3)n2)c(C(N)=O)n1 [Example 23, N-(3-carbamoyl-1-methyl-1H-pyrazol-4-yl)-6′-morpholino-[2,3′-bipyridine]-6-carboxamide]
23 | 82 nM | CN1CCC(c2cccc(C(=O)Nc3cn(C)nc3C(N)=O)n2)=CC1=O [Example 32, N-(3-carbamoyl-1-methyl-1H-pyrazol-4-yl)-1′-methyl-6′-oxo-1′,2′,3′,6′-tetrahydro-[2,4′-bipyridine]-6-carboxamide]
24 | 2280 nM | Cn1cc(NC(=O)c2cccc(-c3ccnc(NCC4CC4)c3)n2)c(C(=O)NC2CCOC2)n1 (stereo not drawn) [Example 51, 2′-((cyclopropylmethyl)amino)-N-(1-methyl-3-((tetrahydrofuran-3-yl)carbamoyl)-1H-pyrazol-4-yl)-[2,4′-bipyridine]-6-carboxamide]
25 | 32 nM | Cn1cc(-c2cccc(C(=O)Nc3cn(C)nc3C(N)=O)n2)cn1 [Example 25, N-(3-carbamoyl-1-methyl-1H-pyrazol-4-yl)-6-(1-methyl-1H-pyrazol-4-yl)picolinamide]
26 | 3620 nM | Cn1cc(NC(=O)c2cccc(-c3ccnc(NCC4CC4)c3)n2)c(C(=O)NCC2CCS(=O)(=O)C2)n1 (stereo not drawn) [Example 45, 2′-((cyclopropylmethyl)amino)-N-(3-(((1,1-dioxidotetrahydrothiophen-3-yl)methyl)carbamoyl)-1-methyl-1H-pyrazol-4-yl)-[2,4′-bipyridine]-6-carboxamide]
27 | 91 nM | Cn1cc(NC(=O)c2cccc(-c3cncc(Cl)c3)n2)c(C(N)=O)n1 [Example 29, N-(3-carbamoyl-1-methyl-1H-pyrazol-4-yl)-5′-chloro-[2,3′-bipyridine]-6-carboxamide]
28 | 1300 nM | Cn1cc(NC(=O)c2cccc(C3=CCS(=O)(=O)CC3)n2)c(C(N)=O)n1 [Example 26, N-(3-carbamoyl-1-methyl-1H-pyrazol-4-yl)-6-(1,1-dioxido-3,6-dihydro-2H-thiopyran-4-yl)picolinamide]
29 | 186 nM | CN(C)[C@H]1CN(C(=O)c2nn(C)cc2NC(=O)c2cccc(-c3ccnc(NCC4CC4)c3)n2)C[C@@H]1O [Example 46, 2′-((cyclopropylmethyl)amino)-N-(3-((3S,4S)-3-(dimethylamino)-4-hydroxypyrrolidine-1-carbonyl)-1-methyl-1H-pyrazol-4-yl)-[2,4′-bipyridine]-6-carboxamide]
30 | 283 nM | Cn1cc(NC(=O)c2ccnc(-c3ccnc(NCC4CC4)c3)n2)c(C(N)=O)n1 [Example 19, N-(3-carbamoyl-1-methyl-1H-pyrazol-4-yl)-2-(2-((cyclopropylmethyl)amino)pyridin-4-yl)pyrimidine-4-carboxamide]
31 | 3450 nM | Cn1cc(NC(=O)c2cccc(N3CCNCC3)n2)c(C(N)=O)n1 [Example 10, N-(3-carbamoyl-1-methyl-1H-pyrazol-4-yl)-6-(piperazin-1-yl)picolinamide]
32 | 260 nM | CN1CCCC(CNC(=O)c2nn(C)cc2NC(=O)c2cccc(-c3ccnc(NCC4CC4)c3)n2)C1 (stereo not drawn) [Example 49, 2′-((cyclopropylmethyl)amino)-N-(1-methyl-3-(((1-methylpiperidin-3-yl)methyl)carbamoyl)-1H-pyrazol-4-yl)-[2,4′-bipyridine]-6-carboxamide]
33 | 1900 nM | Cn1cc(NC(=O)c2cccc(-c3ccncc3)n2)c(C(N)=O)n1 [Example 11, N-(3-carbamoyl-1-methyl-1H-pyrazol-4-yl)-2,4′-bipyridine-6-carboxamide]
